Results reported in patent EP3925949A1, “AZIDO COMPOUNDS AND METHOD FOR MONITORING ACID CERAMIDASE ACTIVITY IN INTACT CELLS USING THEM” (Consejo Superior de Investigaciones Científicas (CSIC), priority 2020, dated 2021).

How the values were obtained:
[1] = biological target: T1, acid ceramidase (AC) (Homo sapiens, UniProt Q13510); test: AC activity by flow cytometry with RBM5-177/CO-1 in intact cells; format: cell-based; design: expressed in transfected cells; host or cells: A375/+Dox and FD/AC (overexpressing AC); A375/-Dox and A549 (endogenous AC)
T1 sequence (Q13510 143-395 limits assumed): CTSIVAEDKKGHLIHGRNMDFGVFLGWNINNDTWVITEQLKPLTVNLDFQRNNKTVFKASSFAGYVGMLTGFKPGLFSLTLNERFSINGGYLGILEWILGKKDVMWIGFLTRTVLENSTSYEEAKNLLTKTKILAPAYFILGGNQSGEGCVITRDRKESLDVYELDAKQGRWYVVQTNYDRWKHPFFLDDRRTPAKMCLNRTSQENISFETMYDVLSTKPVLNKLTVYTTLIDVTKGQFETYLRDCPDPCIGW
T1 sequence (Q13510 22-142 limits assumed): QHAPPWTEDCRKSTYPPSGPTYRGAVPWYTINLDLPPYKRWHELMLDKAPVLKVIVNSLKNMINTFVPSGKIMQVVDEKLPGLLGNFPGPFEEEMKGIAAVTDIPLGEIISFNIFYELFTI
Description: Cells were seeded at 1 × 10^5 cells/mL into 6 well plates (1 mL/well) and were allowed to adhere for 24 h. Medium was replaced with fresh medium containing Soclac (5 µM final concentration) and incubated for 1 h. After this time, the medium was replaced with RBM5-177, RBM5-019 or RBM2-37 (5 µM final concentration) +/- Soclac and incubated for 20 min. In the experiments with DM120, the compound, Soclac and RBM5-177 were incubated together for 4 h. After probes incubation, the medium was replaced with fresh medium containing CO-1 (1 µM final concentration), and cells were incubated for 10 min. Then cells were washed 3 times with DMEM for 5 min at 37 °C, and finally washed with 400 µL PBS and harvested with 400 µL Trypsin-EDTA and 600 µL of medium. Pellets were resuspended with 200 µL of PBS and stained cells were analyzed by using a Guava EasyCyte™ flow cytometer (Merck Millipore, Billerica, MA) measuring green fluorescence (488/525 nm). Data analysis was performed using the Multicycle AV program (Phoenix Flow Systems, San Diego, CA).

[2] = biological target: T1, acid ceramidase (AC); test: Hydrolysis of RBM5-177 by lysates of AC overexpressing cells, UPLC-HRMS; format: biochemical; design: expressed in transfected cells; host or cells: A375/+Dox (overexpressing AC); conditions: lysates from A375/+Dox cells, 30 min
Description: Cells were suspended in the appropriate volume of a 0.25 M saccharose solution with the proteases inhibitors aprotinin (1 mg/ml), leupeptin (1 mg/mml) and PMSF (100 mM). The suspension was submitted to three cycles of a 5 s sonication (probe) at 10 watts/5 s resting on ice. The cell lysate was centrifuged at 600 g for 5 min. The supernatant was collected and protein concentration was determined as specified below.
Cells were seeded at 5 × 10^5 cells/mL into 6 well plates (1 mL/well) and were allowed to adhere for 24 h. Medium was replaced with fresh medium containing RBM5-177, RBM5-019 or RBM2-37 (5 µM final concentration). After 30 min, medium was removed; cells were washed with 400 µL PBS and harvested with 400 µL Trypsin-EDTA and 600 µL of medium. NC recombinant enzyme, […], MEF5 or microsomes from HeLa T-Rex ACER1-TET-ON and HeLa T-Rex […] activity buffer. Cell pellets were resuspended with 100 µL of H2O and mixed with 750 µL of methanol: chloroform, 2:1. Samples were heated at 48°C overnight and next day, 75 µL of 1 M KOH in methanol were added, followed by 2 h incubation at 37°C. Afterwards, the saponification was neutralised with 75 µL of 1 M acetic acid and solvent was removed using a Speed Vac Savant SPD131 DDA (Thermo Scientific). […]

increase in the number of fluorescent counts over FD ([1]; FD/AC cells versus AC deficient FD cells, RBM5-177 5 µM 4 h, CO-1) [fold] | effect on number of fluorescent counts ([1]; A375 cells, SOCLAC 5 µM 1 h pre-incubation (Fig. 5A, 5D)) | effect on number of labelled cells ([1]; FD/AC cells, SOCLAC 5 µM 1 h preincubation (Fig. 5C)) | SMILES | RBM5-19 formation (hydrolysis as substrate) ([2]; RBM5-177 5 µM) | effect on number of labelled cells ([1]; A549 cell line, SOCLAC 5 µM 1 h (Fig. 5B, 5E)) | inhibition of the formation of RBM5-19 from RBM5-177 ([2]; SOCLAC 5 µM, 1 h, then RBM5-177 5 µM)
7 | – | – | CCCCCCCC(=O)N[C@@H](C)[C@H](O)CCCCCCCCCCCCN=[N+]=[N-] [RBM5-177, N-((2S,3R)-15-azido-3-hydroxypentadecan-2-yl)octanamide] | transformed into the free amine only by AC | – | –
– | significantly decreased | reduced down to FD levels | CCCCCCCCCCCCC/C=C/[C@@H](O)[C@H](CO)NC(=O)CCl [SOCLAC] | – | significantly decreasing the number of labelled cells | totally prevented the formation of RBM5-19 from RBM5-177
